Measurements as given in patent publication US20120029054A1, “RNA Interference Mediated Inhibition of GATA Binding Protein 3 (GATA3) Gene Expression Using Short Intefering Nucleic Acid (siNA)” (Merck Sharp & Dohme Corp., priority 2009, published 2012).
[invAb] = inverted abasic unit; m = 2'-O-methyl; r = 2'-OH (RNA); f = 2'-fluoro

How the values were obtained:
GATA3 mRNA [1] = assay: GATA3 mRNA knock-down (Taqman qRT-PCR) after RNAiMax transfection of human MCF7 cells; screen and IC50 dose response; type: cell-based; details: 10 nM siNA, MCF7 cells, 24 hrs, average of 3 experiments
Procedure: MCF7 (human; ATCC cat# HTB-22): Cells were cultured at 37° C. in the presence of 5% CO2 and grown in Eagle's Minimum Essential medium with supplemented with fetal bovine serum at a final concentration of 10% and 100 μg/mL of streptomycin and 100 U/mL penicillin.
(§1) Cells were plated in all wells of a tissue-culture treated, 96-well plate at a final count of 5000 cells/well in 100 μL of the appropriate culture media. The cells were cultured for 24 hours after plating at 37° C. in the presence of 5% CO2.
(§2) After 24 hours, complexes containing siNA and RNAiMax were created as follows: A solution of RNAiMax diluted 33-fold in OPTI-MEM was prepared. In parallel, solutions of the siNAs for testing were prepared to a final concentration of 120 nM in OPTI-MEM. After incubation of RNAiMax/OPTI-MEM solution at room temperature for 5 min, an equal volume of the siNA solution and the RNAiMax solution were added together for each of the siNAs.
(§3) This solution was incubated at room temperature for 20 minutes. After incubation, 20 uL of the solution was added to each of the relevant wells. The final concentration of siNA in each well was 10 nM and the final volume of RNAiMax in each well was 0.3 ul.
(§4) The time of incubation with the RNAiMax-siNA complexes was 24 hours and there was no change in media between transfection and harvesting, unless otherwise indicated.
(§5) RNA was extracted from a 96-well plate using the TaqMan® Gene Expression Cells-to-CT™ Kit (Cat#4399002) with a modified protocol. Briefly, a 60 uL (1 plate) or 110 uL (2 plates) of the Lysis Solution with DNase I was dispensed into each well of the Lysis Buffer Plate (twin.tec full skirt plate). The lysis buffer and stop plates were stored at 4° C. until the cells were washed.
(§6) The plate was spun at 1100 rpm for 5 minutes. The culture medium was aspirated and discarded from the wells of the culture plate. The lysis was performed automatically using a BioMek FX instrument and method. After the Biomek method was completed, the lysis plate was incubated for 2 min. at room temperature. The lysis plate can be stored for 2 hours at 4° C., or at −20° C. or −80° C. for two months.
(§7) Each well of the reverse transcription plate required 10 uL of 2× reverse transcriptase Buffer, 1 uL of 20× reverse transcription enzyme and 2 uL of nuclease-free water. The reverse transcription master mix was prepared by mixing 2× reverse transcription buffer, 20× reverse transcription enzyme mix, and nuclease-free water. 13 uL of the reverse transcription master mix was dispensed into each well of the reverse transcription plate (semi-skirted). A separate reverse transcription plate was prepared for each cell plate. The plate was loaded onto a Biomek NX or Biomek FX Dual-96 and the Biomek method was run. The program is programmed to automatically added 7 uL of lysate from the cell lysis procedure described above into each well of the reverse transcription plate. The plate is sealed and spun on a centrifuge (1000 rpm for 30 seconds) to settle the contents to the bottom of the reverse transcription plate. The plate is placed in a thermocycler at 37° C. for 60 min, 95° C. for 5 min, and 4° C. until the plate is removed from the thermocycler. Upon removal, if not used immediately, the plate was frozen at −20° C.
(§8) A series of probes and primers were used to detect the various mRNA transcripts of the genes of β-Actin (human cell line only), and of GATA3 and GAPDH in mouse and human cell lines. All Taqman probes and primers for the experiments here-in described were supplied as pre-validated sets by Applied Biosystems, Inc. (see Table 2).
(§9) The assays were performed on an ABI 7900 instrument, according to the manufacturer's instructions. A TaqMan Gene Expression Master Mix (provided in the Cells-to-CT™, Applied Biosystems, Cat #4399002) was used. The PCR reactions were carried out at 50° C. for 2 min, 95° C. for 20 min followed by 40 cycles at 95° C. for 15 secs and 60° C. for 1 min. […]

GATA3 mRNA [2] = assay: GATA3 mRNA knock-down (Taqman qRT-PCR) after RNAiMax transfection of mouse RAG cells; type: cell-based; details: 10 nM siNA, 24 hrs, average of 2 experiments
Procedure: RAG (murine; ATCC cat# CCL-142): Cells were cultured at 37° C. in the presence of 5% CO2 and grown in Eagle's Minimum Essential medium with supplemented with 10% of fetal bovine serum, 100 μg/mL of streptomycin, and 100 U/mL penicillin.
as §1, §2, §3, §4, §5, §6, §7, §8, §9

Substance | % KD Human (GATA3 mRNA [1]) | % KD Mouse (GATA3 mRNA [2])
30276-DC: GATA3 siNA duplex, mouse site 678: sense B GGGccucGGccAuucGuAc TTB (SEQ 105), antisense GUAcGAAuGGccGAGGcccUU (SEQ 106) (sense GGGCCUCGGCCAUUCGUACTT; antisense GUACGAAUGGCCGAGGCCCUU; sense: DNA at AGT, 2'-fluoro at CU, [invAb] at 5' end, 3' end, backbone not given here; antisense: sugars from the 5' end rrrfmmmfmmffmmmmfffmm, backbone not given here) | −12 ± 16% | −2 ± 6%
30248-DC: GATA3 siNA duplex, site 643: sense B cGGGccucAGccAcuccuA TTB (SEQ 49), antisense UAGGAGuGGcuGAGGcccGUU (SEQ 50) (sense CGGGCCUCAGCCACUCCUATT; antisense UAGGAGUGGCUGAGGCCCGUU; chemistry not fully specified) | 18 ± 4% | 1 ± 5%
30270-DC: GATA3 siNA duplex, mouse site 1960: sense B ccAAGuGuGcGAAGAGuuc TTB (SEQ 93), antisense GAAcucuucGcAcAcuuGGUU (SEQ 94, row printed as 30269-DC) (sense CCAAGUGUGCGAAGAGUUCTT; antisense GAACUCUUCGCACACUUGGUU; chemistry not fully specified) | −25 ± 24% | 69 ± 4%
30275-DC: GATA3 siNA duplex, mouse site 794: sense B GGGcuAcGGuGcAGAGGuA TTB (SEQ 103), antisense UACcucuGcAccGuAGcccUU (SEQ 104) (sense GGGCUACGGUGCAGAGGUATT; antisense UACCUCUGCACCGUAGCCCUU; sense: DNA at AGT, 2'-fluoro at CU, [invAb] at 5' end, 3' end, backbone not given here; antisense: sugars from the 5' end rrrffffmfmffmfmmfffmm, backbone not given here) | 42 ± 8% | 49 ± 7%
30279-DC: GATA3 siNA duplex, mouse site 1448: sense B ccuGcGGAcucuAccAuAA TTB (SEQ 111), antisense UUAuGGuAGAGuccGcAGGUU (SEQ 112) (sense CCUGCGGACUCUACCAUAATT; antisense UUAUGGUAGAGUCCGCAGGUU; sense: DNA at AGT, 2'-fluoro at CU, [invAb] at 5' end, 3' end, backbone not given here; antisense: sugars from the 5' end rrrfmmfmmmmfffmfmmmmm, backbone not given here) | −27 ± 12% | 68 ± 4%
30281-DC: GATA3 siNA duplex, human/mouse site 904: sense B ccuucuccAAGAcGuccAu TTB (SEQ 115), antisense AUGGAcGucuuGGAGAAGGUU (SEQ 116) (sense CCUUCUCCAAGACGUCCAUTT; antisense AUGGACGUCUUGGAGAAGGUU; sense: DNA at AGT, 2'-fluoro at CU, [invAb] at 5' end, 3' end, backbone not given here; antisense: sugars from the 5' end rrrmmfmffffmmmmmmmmmm, backbone not given here) | −14 ± 7% | 13 ± 3%
30255-DC: GATA3 siNA duplex, site 1085: sense B ccGGcAGGAcGAGAAAGAG TTB (SEQ 63), antisense CUCuuucucGuccuGccGGUU (SEQ 64) (sense CCGGCAGGACGAGAAAGAGTT; antisense CUCUUUCUCGUCCUGCCGGUU; sense: DNA at AGT, 2'-fluoro at C, [invAb] at 5' end, 3' end, backbone not given here; antisense: sugars from the 5' end rrrffffffmffffmffmmmm, backbone not given here) | 26 ± 11% | 40 ± 3%
30266-DC: GATA3 siNA duplex, mouse site 1258: sense B cccuAuGuGcccGAGuAcA TTB (SEQ 85), antisense UGUAcucGGGcAcAuAGGGUU (SEQ 86) (sense CCCUAUGUGCCCGAGUACATT; antisense UGUACUCGGGCACAUAGGGUU; chemistry not fully specified) | −3 ± 5% | 8 ± 5%
30250-DC: GATA3 siNA duplex, site 727: sense B GcAAccAcGucccGcccuA TTB (SEQ 53), antisense UAGGGcGGGAcGuGGuuGcUU (SEQ 54) (sense GCAACCACGUCCCGCCCUATT; antisense UAGGGCGGGACGUGGUUGCUU; chemistry not fully specified) | 6 ± 9% | −9 ± 8%
30282-DC: GATA3 siNA duplex, human/mouse site 2587: sense B cAccAAAAuAAGAAAAGAu TTB (SEQ 117), antisense AUCuuuucuuAuuuuGGuGUU (SEQ 118) (sense CACCAAAAUAAGAAAAGAUTT; antisense AUCUUUUCUUAUUUUGGUGUU; sense: DNA at AGT, 2'-fluoro at CU, [invAb] at 5' end, 3' end, backbone not given here; antisense: sugars from the 5' end rrrfffffffmffffmmfmmm, backbone not given here) | 46 ± 8% | 84 ± 1%
30280-DC: GATA3 siNA duplex, mouse site 1106: sense B ccGGGucGGccAGGcAAGA TTB (SEQ 113), antisense UCUuGccuGGccGAcccGGUU (SEQ 114) (sense CCGGGUCGGCCAGGCAAGATT; antisense UCUUGCCUGGCCGACCCGGUU; sense: DNA at AGT, 2'-fluoro at CU, [invAb] at 5' end, 3' end, backbone not given here; antisense: sugars from the 5' end rrrfmfffmmffmmfffmmmm, backbone not given here) | −16 ± 12% | 1 ± 2%
